# Values of other authors, collected in patent US8716506B2, “Xylitol esters and ethers applied as alternative emulsifiers, solvents, co-emulsifiers and preservative systems for pharmaceutical and cosmetic products” (priority 2008, dated 2014).
# What was measured:
# S. pneumoniae = conditions: concentration of 5%
# Streptococcus pneumoniae = conditions: concentration of 5%
# Haemophilus influenzae = conditions: concentration of 5%
smiles,measurement,setting,value
"C=O [formaldehyde, Formaldehyde (methanal)]",volunteers with contact hypersensitizing,"clinical tests, even in concentrations of 30 ppm of free formaldehyde",1-9%
"CC1(C)C(=O)N(CO)C(=O)N1CO [DMDM hydantoin, 1,3-Dimethylo1-5,5-dimethyl hydantoin]",volunteers with hypersensitivity in contact test,De Groot and collaborators,57%
OC[C@@H](O)[C@H](O)[C@@H](O)CO [xylitol],adherence levels in epithelial nasopharyngeal cells,S. pneumoniae,reduced the adherence levels
same,growth inhibition,Streptococcus pneumoniae,inhibited the growth
same,adherence levels in epithelial nasopharyngeal cells,Haemophilus influenzae,reduced the adherence levels
